This is an account of results in patent US20060009438A2, “MODIFIED, HYDROXY-SUBSTITUTED AROMATIC STRUCTURES HAVING CYTOPROTECTIVE ACTIVITY” (Washington University, priority 2000, published 2006).

pEC50: −log10 of the molar value. Like-named read-outs stand apart in the source and are kept apart here.

As a reminder, the melting point is the temperature of the solid-liquid transition.

Data set [1] concerns HT-22 cells (immortalized hippocampal neurons). The data set is described as follows: HT-22 Cell Neuroprotection Assay (glutamate insult, calcein AM viability). In kind it is cell-based, murine. Conditions: ~16 h. As to the method:
HT-22 cells (immortalized hippocampal neurons of murine origin) were maintained in DMEM media (Life Technologies, Inc., Gaitherburg, MD) supplemented with 10% charcoal-stripped FBS (HyClone Laboratories, Inc., Logan, UT) and 20 µg/mL gentamycin, according to standard culture conditions.
Cells were plated at a density of 5,000 cells/well in clear-bottomed Nunc 96-well plates (Fisher Scientific, Orlando, FL) and allowed to incubate overnight. Steroids dissolved in DMSO were added at concentrations ranging from 0.01-10 µM and were co-administered with glutamate (10 mM or 20 mM). DMSO was used at concentrations of 0.1% vol/vol as a vehicle control and had no discernible effect on cell viability. After ~16 h of glutamate exposure, cells were rinsed with PBS, pH 7.4, and viability was assessed by the addition of 25 µM calcein AM (Molecular Probes, Inc., Eugene, OR) in PBS for 15 min at room temperature. Fluorescence was determined (excitation 485, emission 530) using a fluorescence FL600 microplate reader (Biotek, Winooski, VT). Cells that were lysed by addition of methanol were used for blank readings. All data were normalized to % cell death, as calculated by (control value - insult value)/control value x 100.

Another data set has as its system cortical neurons. Briefly: NMDA-induced neuronal cell death in mixed cortical neuron/glial cultures (Trypan blue counting). In kind it is cell-based, mouse. The procedure: Glial cell cultures: Glial cell cultures were prepared from P1 mice. Briefly, cortex from P1 mice were dissected and digested with 0.025% trypsin for 30-40 min. After trituration, the cells were plated on poly-D-lysine/laminin coated glass-bottom dishes at a density of approximately 5 x 10^6 cells per dish. Cells were grown for 7-10 days in Eagle's minimal essential medium supplemented with 10% fetal bovine serum, 10% horse serum, 10 ng/ml epidermal growth factor, 2 mM glutamine and 20 mM glucose. Cultures were kept at 37°C in a humidified CO2 atmosphere until they reached confluence. Cultures were then used to support neurons (see below).
Cortical neuronal cultures: Cortical neurons were prepared from E15-16 mouse embryos. Dissociated cortical cells (at a density of 5x 10^6 cells per dish) were plated on a layer of confluent glial cells (7-10 days in vitro), into Eagle's minimal essential medium supplemented with 5% fetal bovine serum, 5% horse serum, 2 mM glutamine, and 21 mM glucose. Cultures were kept at 37°C in a humidified 5% CO2 atmosphere. After 3-5 days in vitro, non-neuronal cell division was halted by exposure to 10^-5 M cytosine arabinoside for 2 days, and cultures were shifted to a growth medium identical to the plating medium but lacking […]. Cultures 9-14 days in vitro were used for the experiments.
Neuronal cell death: Mixed neuron/glial cultures were exposure to NMDA (30 µM) for 24 hours in medium stock (MS) (minimal essential medium with 15.8 mM NaHCO3 and 20 mM glucose, pH 7.4) at 37°C. Cell death was assessed […] by counting cells that stained with Trypan blue (0.4% for 10 minutes at 37°C). Stained neurons were counted from three random fields per dish. For the experiments to test the neuroprotective effect of the 17-β-estradiol and the adamantyl-modified analog thereof, cultures were incubated with the drugs for various time periods prior to when NMDA was added to the medium. Results

Setting [2] is: 10 mM glutamate co-administered, read-out: Sterioid concentration needed to protect 50% of neurons killed by 10 mM Glutamate ED50.
Where [3] appears, read: 20 mM glutamate co-administered, read-out: Sterioid concentration needed to protect 50% of neurons killed by 20 mM Glutamate ED50.

Regarding `Cc1c(O)c(C(C)(C)C)cc2c1CC[C@@H]1[C@@H]2CC[C@]2(C)C(=O)CC[C@@H]12` [ZYC-25, 2-(1,1-Dimethylethyl)-3-hydroxy-4-methylestra-1,3,5(10)-trien-17-one], the melting point lay within 190 to 192 °C.

Consider `C[C@]12CC[C@@H]3c4ccc(O)cc4CC[C@H]3[C@@H]1CC[C@H]2O` [17 α-Estradiol, 17α-estradiol], for which the pEC50 was 5.51 in data set [1] (setting [2]) and 4.79 in data set [1] (setting [3]).

For the compound `CC12CCC3c4cc(C56CC7CC(CC(C7)C5)C6)c(O)cc4CCC3C1CCC2O` (stereo not drawn) [ZYC-33, Ent-(17β)-2-(1-Adamantyl)estra-1,3,5(10)-triene-3,17-diol], the results for the pEC50 in data set [1] (setting [2]) and in data set [1] (setting [3]) were 7.19 and 7.72, respectively.

Consider `C[C@@]12CC[C@H]3c4ccc(O)cc4CC[C@@H]3[C@H]1CC[C@H]2O` (single isomer, unassigned; ent-17) [Ent-(17 β)-Estradiol, ent-17β-estradiol], for which the pEC50 in data set [1] (setting [2]) was 5.97; in data set [1] (setting [3]), 5.90.

Consider `CC(C)(C)c1cc2c(cc1O)CCC1C2CCC2(C)C(O)CCC12` (stereo not drawn) [ZYC-34, Ent-(17β)-2-(1,1-dimethylethyl)estra-1,3,5(10)-triene-3,17-diol], for which the pEC50 in data set [1] (setting [2]) is 6.62; in data set [1] (setting [3]), 6.59.

On to `C[C@]12CC[C@@H]3c4cc(C56CC7CC(CC(C7)C5)C6)c(O)cc4CC[C@H]3[C@@H]1CC[C@@H]2O` [ZYC-5, (17 β)-2-(1-Adamantyl)-estra-1,3,5(10)-triene-3,17-diol], for which the “protective effect against NMDA-induced neuronal death” value in the data set on cortical neurons (100 nM dosage, 30 µM NMDA for 24 hours (Figure 5)) was 10%. The “protection from neuronal death due to NMDA exposure” value in the data set on cortical neurons (1 µM drug, pre-incubation, 30 µM NMDA for 24 hours (Figure 5)) is on record as “about half”. Further, the “effectiveness relative to 17-β-estradiol” value in the data set with cortical neurons (1 µM versus 10 µM 17-β-estradiol (one-tenth the dosage)) is reported as “more than three times more effective”. Further, in the data set with cortical neurons (1 µM, 1-12 hours pre-incubation prior to NMDA exposure (Figure 6)), the “neuronal survival versus pre-incubation time” value is “no significant difference”. In addition, the “neuronal protection versus pre-incubation time” value in the data set with cortical neurons (1 µM, 24 hours pre-incubation prior to NMDA exposure (Figure 6)) is “best protection results”.

`Cc1c(O)c(C23CC4CC(CC(C4)C2)C3)cc2c1CC[C@@H]1[C@@H]2CC[C@]2(C)C(=O)CC[C@@H]12` [ZYC-26, 2-(1-admantanyl)-3-hydroxy-4-methylestra-1,3,5(10)-trien-17-one] registered a melting point of 262 to 263 °C.

Take `C[C@]12CC[C@@H]3c4ccc(O)cc4CC[C@H]3[C@@H]1CC[C@@H]2O` [17-β Estradiol, 17-β-estradiol]: the “reduction of neuronal loss due to NMDA exposure” value in the data set on cortical neurons (10 µM drug, pre-incubation, 30 µM NMDA for 24 hours (Figure 5)) was “about 15%”. The pEC50 was 5.66 in data set [1] (setting [2]) and 5.52 in data set [1] (setting [3]).
